Where a name gives a salt, the structure may show the parent alone.
Legend:
GSK-3α/β = GSK-3α/β kinase assay (GS-1 substrate, 15 μM ATP); assay type: biochemical, porcine; conditions: 30° C., 30 min, read-out: GSK3 IC50
Experimental: (§1) Blank values were subtracted and activities calculated as pmoles of phosphate incorporated during a […] incubation. The activities were expressed in % of the maximal activity, i.e. in the absence of inhibitors. Controls were performed with appropriate dilutions of dimethylsulfoxide. Phosphorylation of the substrate was assessed by the P81 phosphocellulose assay.
GSK-3α/β was purified from porcine brain by affinity chromatography on immobilized axin^5. […] ATP (3,000 Ci/mmol; 10 mCi/ml) in a final volume of 30 μl. After 30 min. incubation at 30° C., 25 μl aliquots of supernatant were processed as described above.

CDK1/cyclin B = CDK1/cyclin B kinase assay (histone H1, 15 μM ATP); assay type: biochemical, starfish (Marthasterias glacialis); conditions: 30° C., 30 min
CDK5/p25 = CDK5/p25 (Homo sapiens, UniProt Q00535); experiment: CDK5/p25 kinase assay (histone H1, 15 μM ATP); assay type: biochemical; conditions: 30° C., 30 min
Experimental: as §1
CDK5/p25 was reconstituted by mixing equal amounts of recombinant human CDK5 and p25 expressed in E. coli as GST (Glutathione-S-transferase) fusion proteins and purified by affinity chromatography on glutathione-agarose (p25 is a truncated version of p35, the 35 kDa CDK5 activator). Its activity was assayed with histone H1 in buffer C as described for CDK1/cyclin B.

[1] = system: GSK-3-phosphorylated β-catenin; experiment: β-catenin phosphorylation at GSK-3 sites in SH-SY5Y cells (Western blot / ELISA); assay type: cell-based, human; conditions: 6 hours, 10 μM or range of concentrations, with 2 μM MG132
Experimental: 2a. […] The level of GSK-3-phosphorylated β-catenin was estimated by Western blotting following SDS-PAGE, using an antibody that specifically cross-reacts with GSK-3 phosphorylated β-catenin. […] 2b. Dose-response curves for a selection of indirubins were run in an ELISA assay using the same antibodies directed against GSK-3 phosphorylated β-catenin. SH-SY5Y cells were exposed for 6 hours to a range of concentrations of each indirubin, in the presence of MG132, and extracts were assessed in the ELISA assay. Activity was expressed as percentage of phosphorylated β-catenin in untreated control cells.
Nearly confluent SH-SY5Y human neuroblastoma cells were grown in 96 plates in DMEM (supplemented with 10% FCS and antibiotics). Cells were co-treated with tested compounds and 2 μM MG132 (to allow accumulation of phosphorylated β-catenin) for 6 hours. […] Cells were then subjected to an ELISA assay using antibodies directed against Ser33/Ser37/Thr41-phosphorylated (1:1000) p-catenin obtained from Cell Signaling Technology. Results are expressed in percentage of maximal β-Catenin phosphorylation, i.e. in untreated cells exposed to MG132 only as positive control (100% phosphorylation).
Cells were resuspended, lysed for 30 min at 4° C. in Homogenization Buffer and sonicated. After centrifugation (14000 r.p.m. for 15 min at 4° C.), the protein concentration was determined in the supernatants by the Bradford protein assay (Bio-Rad). Following heat denaturation for 5 min, proteins were separated by 10% NuPAGE pre-cast Bis-Tris Acetate polyacrylamide mini gel (Invitrogen) with MOPS SDS running buffer. Proteins were transferred to 0.45 μm nitrocellulose filters (Schleicher and Schuell). These were blocked with 5% low fat milk in Tris-Buffered Saline—Tween-20, incubated overnight at 4° C. with antibodies directed against Ser33/Ser37/Thr41-phosphorylated β-catenin (1:1000) (Cell Signaling Technology) and analyzed by Enhanced Chemiluminescence (ECL, Amersham).
Cells were exposed to various concentrations […] of each indirubin in the presence of a constant level of MG132 (an inhibitor of the proteasome which prevented the rapid degradation of β-catenin once phosphorylated by GSK-3). The level of GSK-3-phosphorylated was estimated either by Western blotting (with an antibody that specifically cross-reacts with β-catenin when phosphorylated at a GSK-3 site) following SDS-PAGE (FIG. 2a) or by an ELISA assay (FIG. 2b). […] Dose-response curves were obtained with ELISA assay (FIG. 2b).

CDK5/p25, sequence (Q00535 whole entry): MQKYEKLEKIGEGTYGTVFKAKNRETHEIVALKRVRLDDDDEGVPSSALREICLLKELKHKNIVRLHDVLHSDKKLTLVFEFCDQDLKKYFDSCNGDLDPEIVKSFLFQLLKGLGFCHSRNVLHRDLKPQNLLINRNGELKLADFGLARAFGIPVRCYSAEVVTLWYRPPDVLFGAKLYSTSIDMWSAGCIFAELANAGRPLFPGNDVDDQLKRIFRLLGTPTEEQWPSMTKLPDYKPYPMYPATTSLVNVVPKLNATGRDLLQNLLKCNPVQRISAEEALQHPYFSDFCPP
CDK5/p25, sequence (Q15078 99-307 partner limits assumed): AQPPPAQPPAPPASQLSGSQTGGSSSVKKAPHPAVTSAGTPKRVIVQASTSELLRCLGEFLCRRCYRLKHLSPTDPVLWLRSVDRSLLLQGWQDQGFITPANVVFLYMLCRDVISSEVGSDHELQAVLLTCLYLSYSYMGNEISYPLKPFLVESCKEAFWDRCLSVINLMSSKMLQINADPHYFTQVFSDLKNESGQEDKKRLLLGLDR

| IC50 (GSK-3α/β) | IC50 (CDK1/cyclin B) | IC50 (CDK5/p25) | melting point | Compound | Inhibition of β-catenin phosphorylation at GSK-3 sites [1] |
| --- | --- | --- | --- | --- | --- |
|  |  |  |  | O=C1Nc2cc(Br)ccc2/C1=C1/Nc2ccccc2/C1=N\OCCN1CCN(CCO)CC1 [Cpd 13] | most efficient |
| 30 nM | > 10000 nM |  | 237 °C | CCN(CC)C(=O)O/N=C1/C(=C2/C(=O)Nc3cc(Br)ccc32)Nc2ccccc21 [Cpd 4, (2′Z-3′E)-6-Bromoindirubin-3′-[O-(N,N-diethylcarbamyl)-oxime]] |  |
| 5 nM | 300 nM | 300 nM |  | CN1CCN(CCO/N=C2/C(=C3/C(=O)Nc4cc(Br)ccc43)Nc3ccccc32)CC1 [Cpd 23, (2′Z-3′E)-6-Bromoindirubin-3′-{O-[2-(4-methylpiperazin-1-yl)ethyl]oxime}Dihydrochloride] | most efficient |
|  |  | 180 nM |  | O=C1Nc2cc(Br)ccc2/C1=C1/Nc2ccccc2/C1=N\OCCN1CCNCC1 [Cpd 22, (2′Z-3′E)-6-Bromoindirubin-3′-[O-(2-piperazine-1-ylethyl)oxime]Dihydrochloride] | most efficient |
| 34 nM | 110 nM | 25 nM | > 300 °C | O=C1Nc2cc(Br)ccc2/C1=C1/Nc2ccccc2/C1=N\OCC(O)CO (stereo not shown) [Cpd 3, (2′Z-3′E)-6-Bromoindirubin-3′-[O-(2,3-dihydroxypropyl)-oxime]] | most efficient |
| 11 nM | 2800 nM | 500 nM |  | COCCN1CCN(CCO/N=C2/C(=C3/C(=O)Nc4cc(Br)ccc43)Nc3ccccc32)CC1 [Cpd 14] |  |
| 140 nM | > 10000 nM |  | 252 °C | O=C1Nc2cc(Br)ccc2/C1=C1/Nc2ccccc2/C1=N\OCCBr [Cpd 1, (2′Z-3′E)-6-Bromoindirubin-3-[O-(2-bromoethyl)-oxime]] |  |
| 1700 nM | 1700 nM | 5000 nM |  | O=C1Nc2cc(Br)ccc2/C1=C1/Nc2ccccc2/C1=N\OCCO [Cpd 2, (2′Z-3′E)-6-Bromoindirubin-3′-[O-(2-hydroxyethyl)-oxime]] |  |
|  |  |  |  | CN1C(=O)C(=C2Nc3ccccc3C2=NO)c2ccc(Br)cc21 [1-methyl-6BIO, reference compound] | ineffective |
|  |  |  |  | CN(C)CCO/N=C1/C(=C2/C(=O)Nc3cc(Br)ccc32)Nc2ccccc21 [Cpd 5, (2′Z-3′E)-6-Bromoindirubin-3′-[O-(2-dimethylaminoethyl)-oxime]] | most efficient |
| 67 nM | 240 nM | 240 nM | 195 °C | CN(CCO/N=C1/C(=C2/C(=O)Nc3cc(Br)ccc32)Nc2ccccc21)CC(O)CO (stereo not shown) [Cpd 10, (2′Z-3′E)-6-Bromoindirubin-3′-(O-{2-[-methyl, N-(2,3-dihydroxypropyl)amino]ethyl}oxime]] |  |
|  |  |  | 235 °C | O=C1Nc2cc(Br)ccc2/C1=C1/Nc2ccccc2/C1=N\OCCN1CCOCC1 [Cpd 8, (2′Z-3′E)-6-Bromoindirubin-3′-[O-(2-morpholin-1-ylethyl)oxime]] |  |
|  |  |  |  | CN(C)CCO/N=C1/C(=C2/C(=O)Nc3cc(Br)ccc32)Nc2ccccc21 [Cpd 16, (2′Z-3′)-6-Bromoindirubin-3′-[O-(2-dimethylaminoethyl)oxime]Hydrochloride] | most efficient |
| 7 nM | 400 nM | 400 nM |  | CN1CCN(CCO/N=C2/C(=C3/C(=O)Nc4cc(Br)ccc43)Nc3ccccc32)CC1 [Cpd 12, (2′Z-3′E)-6-Bromoindirubin-3′-{O-[2-(4-methyl-piperazin-1-yl)ethyl]oxime}] | most efficient |
|  |  |  |  | O=C1Nc2cc(Br)ccc2/C1=C1/Nc2ccccc2/C1=N\OCCN1CCN(CCO)CC1 [Cpd 24] | most efficient |
|  |  |  |  | O=C1Nc2cc(Br)ccc2/C1=C1/Nc2ccccc2/C1=N\OCCN1CCNCC1 [Cpd 11, (2′Z-3′E)-6-Bromoindirubin-3′-[O-(2-piperazine-1-ylethyl)oxime]] | most efficient |
| 20 nM | 1000 nM | 400 nM |  | COCCN1CCN(CCO/N=C2/C(=C3/C(=O)Nc4cc(Br)ccc43)Nc3ccccc32)CC1 [Cpd 25] |  |
| 33 nM | 500 nM | 330 nM |  | O=C1Nc2cc(Br)ccc2/C1=C1/Nc2ccccc2/C1=N\OCCN1CCN(CCOCCO)CC1 [Cpd 26, (2′Z-3′E)-6-Bromoindirubin-3′-[O-(2-{4-[2-(2-hydroxyethoxy)-ethyl]piperazin-1-yl}ethyl)oxime]Dihydrochloride] |  |

| Compound | IC50 (GSK-3α/β) | IC50 (CDK1/cyclin B) | IC50 (CDK5/p25) | melting point | Inhibition of β-catenin phosphorylation at GSK-3 sites [1] |
| --- | --- | --- | --- | --- | --- |
| O=C1Nc2cc(Br)ccc2/C1=C1/Nc2ccccc2/C1=N\OCCN1CCCC1 [Cpd 18, (2′Z-3′)-6-Bromoindirubin-3′-[O-(2-pyrrolidin-1-ylethyl)oxime]Hydrochloride] | 54 nM | 450 nM | 100 nM |  |  |
| O=C1Nc2cc(Br)ccc2/C1=C1/Nc2ccccc2/C1=N\OCCN(CCO)CCO [Cpd 9] |  |  |  | 201 °C | most efficient |
| CCN(CC)CCO/N=C1/C(=C2/C(=O)Nc3cc(Br)ccc32)Nc2ccccc21 [Cpd 17, (2′Z-3′E)-6-Bromoindirubin-3′-[O-(2-diethylaminoethyl)oxime]Hydrochloride] | 27 nM | 190 nM | 40 nM |  |  |
| O=C1Nc2cc(Br)ccc2/C1=C1/Nc2ccccc2/C1=N\OCCN1CCCC1 [Cpd 7, (2′Z-3′E)-6-Bromoindirubin-3′-[O-(2-pyrrolidin-1-ylethyl)oxime]] | 26 nM | 500 nM | 130 nM |  |  |
| CCN(CC)CCO/N=C1/C(=C2/C(=O)Nc3cc(Br)ccc32)Nc2ccccc21 [Cpd 6, (2′Z-3′E)-6-Bromoindirubin-3′-[O-(2-diethylaminoethyl)-oxime]] | 35 nM | 90 nM | 20 nM |  |  |
| CN(CCON=C1C(=C2C(=O)Nc3cc(Br)ccc32)Nc2ccccc21)CC(O)CO (stereo not shown) [Cpd 21] | 23 nM | 150 nM | 100 nM |  |  |

Source: patent publication US8829203B2, “3′,6-substituted indirubins and their biological applications” (Centre National de la Recherche Scientifique (CNRS), priority 2008, dated 2014)
